Assay [1] deals with rats. Conditions: injected in rats; cited from earlier work.
Assay [2] concerns mouse DRG neurons. The format is cell-based.
Assay [3] has as its system iPS cell-derived sensory neurons. The format is cell-based, human.
Assay [4] has as its system humans. Conditions: injection in humans; cited from earlier work.
For assay [5], the system named is animal models. To be noted: subcutaneous injection; cited from earlier work.
For assay [6], the system named is E18 rat hippocampal neurons. Put plainly: High-throughput fluorescent voltage recording, 96-well plate (FIGS. 30-34). The format is cell-based. To be noted: 1 μM; neurons cultured for 14 days; blue light stimulus. An excerpt:
FIGS. 30-34 show high-throughput validation for screening. E18 rat hippocampal neurons cultured for 14 days.
The blue light stimulus is shown below.
FIG. 31 is a raster plot showing spikes from columns of wells.
Vehicle wells (even columns, green) and ML213 wells (odd columns, red) are easily distinguished. Even numbered columns are all green; odd numbered columns are all read.

The test system of assay [7] is Cultured DRG neurons. In words: Firing phenotypes of cultured DRG neurons. The class given is cell-based, rodent.

No end group written: not given here.

For the compound “IL-6: an inflammatory cytokine found to be elevated around tumors”, in assay [1], the pain on injection entry is on record as “causes local pain”.

On to `NC1=N[C@H](O)[C@H]2[C@H]3O[C@]4(O)O[C@@H]([C@@H](O)[C@@]2(N1)[C@@H]4O)[C@]3(O)CO` [TTX, tetrodotoxin], for which, in assay [2], the after-hyperpolarization depth entry is given as “decreases”, the “effect on the pain mediator composition-induced firing” value is reported as “blocks the effect of the pain mediator composition” and the spike width entry is given as “increases”. Further, in assay [3], the “spiking in response to the blue stimulus” value is recorded as “almost all spiking is blocked”.

For TNF-a, the pain on injection entry in assay [1] is on record as “cause pain”.

Regarding `Nc1ncnc2c1ncn2[C@@H]1O[C@H](COP(=O)(O)OP(=O)(O)OP(=O)(O)O)[C@@H](O)[C@H]1O` [ATP, adenosine triphosphate], in assay [4], the “pain sensitivity on injection” value is recorded as “increased pain sensitivity”.

On to “endothelin 1 (CSCSSLMDKECVYFCHLDIIW; ends and bridges not checked; cysteine pairing not given here; UniProt P05305 53-73, looked up) [ET-1]”, for which the “sensitization (paw withdrawal threshold)” value in assay [5] was “local sensitization”.

In the case of `Cc1cc(C)c(NC(=O)C2CC3CCC2C3)c(C)c1` (stereo not shown) [ML213], the firing rate entry in assay [6] is given as “dramatically reduces firing rate in all wells tested”.

Regarding `COc1cc(CNC(=O)CCCC/C=C/C(C)C)ccc1O` [capsaicin], in assay [7], the “firing phenotype in response to capsaicin” value is “acute response”.
